Data reported in US7416741B2, “Copper lowering treatment of inflammatory and fibrotic diseases” (The Regents of the University of Michigan, priority 2002, dated 2008).

Key:
[1] = Body weight and hematocrit in the bleomycin mouse model; assay type: in vivo; conditions: for Weight / Hematocrit: sacrifice day 21; for protection against weight loss from bleomycin: Ex 1 Exp 2; for mean hematocrit: day 21
Protocol: Mice. Female CBA/J mice at 8-10 weeks of age were from the Jackson Laboratories (Bar Harbor, Me.). These mice weighed an average of 21.4 g at the start of experiments, with a standard deviation of 1.7 g.
Bleomycin treatment. This was undertaken on day 0 by endotracheal instillation through the oral cavity after exposure of the airway by pulling the tongue. Each mouse received 0.001 units of bleomycin (Bristol-Myers, Evansville, Ind.)/gm body weight in 30 μl of sterile saline, while control mice received an equal volume of sterile saline only.
TM treatment experiments. TM was given in 0.25 ml of water by intragastric gavage once daily, in the doses and times indicated in the various studies as described below.
There were four experimental groups of five to seven mice each. Group 1 received bleomycin, group 2 was a saline control, group 3 received bleomycin and TM therapy, and group 4 was a TM therapy control. The TM was given in a dose of 0.7 mg/mouse/day beginning 7 days prior to bleomycin treatment. During days 9 to 11 after bleomycin, the TM-treated mice received 1.2 mg of TM daily, to ensure adequate lowering of copper levels, and then received 0.7 mg daily for the duration of the study. The mice were sacrificed 21 days after bleomycin treatment.
In this experiment, the effect of TM at different doses after bleomycin administration was examined. Experimental groups of four bleomycin-treated and two to four control (non-bleomycin treated) mice were given varying doses of TM. Initially, All TM-treated mice received identical loading doses of 1.2 mg/mouse/day for 3 days (minus 5 to minus 3 days) prior to bleomycin administration. From that point on, groups of mice were given 0.3, 0.5, 0.7, or 0.9 mg of TM/mouse/day until sacrifice at day 21 after bleomycin treatment. A group of four bleomycin treated and a group of four non-bleomycin treated mice received no TM.
Three experiments were carried out. Experiment 1 comprised four groups of three mice each. Group 1 received bleomycin only, group 2 received bleomycin and TM therapy, group 3 received saline in the trachea rather than bleomycin, and group 4 received TM therapy only. The mice in groups 2 and 4 each received 1.2 mg of TM per day for four days prior to bleomycin, and then were given 0.9 mg TM per day until sacrifice at seven days after bleomycin.
Experiment 2 comprised four groups of five mice each. The four groups were assigned as in experiment 1 to bleomycin, bleomycin and TM, saline rather than bleomycin, and TM only. Groups 2 and 4 were started on TM five days after bleomycin treatment at a dose of 1.2 mg per day for four days, and then 0.9 mg per day until sacrifice at day 21.

Lysyl oxidase = Lysyl oxidase in the lungs, bleomycin model; assay type: in vivo, mouse; conditions: Ex 2 Exp 1; TM treated vs non-TM treated animals

[SH-].[SH-].[S]=[Mo]=[S] [TM, tetrathiomolybdate]
Weight ([1]; Ex 1 Exp 1, Bleomycin/TM group, TM 0.7 mg/mouse/day gavage from 7 days before bleomycin): 21.2 ± 0.8 g
Hematocrit ([1]; Ex 1 Exp 1, Bleomycin/TM group): 39.7 ± 2.6
effect of TM alone on weight ([1]; Ex 1 Exp 1, TM alone (group 4)): tended to produce some weight loss
Weight ([1]; Ex 1 Exp 1, TM only group (no bleomycin), 0.7 mg/mouse/day): 20.4 ± 1.0 g
Hematocrit ([1]; Ex 1 Exp 1, TM only group): 44.1 ± 1.0
protection against bleomycin induced weight loss ([1]; Ex 1 Exp 1, bleomycin/TM group): protected against some of the bleomycin induced weight loss
protection against weight loss from bleomycin ([1]; 0.3 mg TM dose): only slightly protective
protection against weight loss from bleomycin ([1]; 0.5 mg TM dose): intermediately protective
protection against weight loss from bleomycin ([1]; 0.7 mg TM dose): intermediately protective
protection against weight loss from bleomycin ([1]; 0.9 mg TM dose): fully protective
mean weight in the bleomycin/TM group ([1]; Ex 2 Exp 1, sacrifice day 7): almost exactly the same as the saline control group
mean hematocrit ([1]; Ex 2 Exp 2, TM group): 43.8%
mean weight at the time of sacrifice ([1]; Ex 2 Exp 2, bleomycin/TM group, TM started 5 days after bleomycin): 19.6 g
mean hematocrit ([1]; Ex 2 Exp 2, bleomycin/TM group): 44.3%
lysyl oxidase activity in the lungs (Lysyl oxidase): not inhibited
